In ChEMBL document CHEMBL3045560, “Insecticide interactions with -aminobutyric acid and nicotinic receptors: predictive aspects of structural models” (J Pestic Sci, 2008):

Columns and labels:
[1] = Selectivity ratio of IC50 for recombinant human GABA receptor to IC50 for housefly GABA receptor
Musca domestica = assay: Insecticidal activity against topically-treated Musca domestica (house fly); assay type: ADME, organism-based; settings: topical
[2] = Toxicity in ip dosed Mus musculus (mouse); assay type: organism-based; settings: in vivo
[3] = Inhibition of recombinant Homo sapiens (human) GABA receptor
[4] = molecular target: Gamma-aminobutyric acid receptor subunit rho-1 (Homo sapiens, UniProt P24046); assay: Displacement of [3H]EBOB from recombinant Homo sapiens (human) GABA rho1 receptor
[5] = molecular target: T1, Gamma-aminobutyric acid receptor subunit alpha-1/ beta-1 (Homo sapiens, UniProt P14867+P18505); assay: Displacement of [3H]EBOB from recombinant Homo sapiens (human) GABA alpha1beta1 receptor; assay type: protein-complex assay
T1 sequence (P14867 whole entry): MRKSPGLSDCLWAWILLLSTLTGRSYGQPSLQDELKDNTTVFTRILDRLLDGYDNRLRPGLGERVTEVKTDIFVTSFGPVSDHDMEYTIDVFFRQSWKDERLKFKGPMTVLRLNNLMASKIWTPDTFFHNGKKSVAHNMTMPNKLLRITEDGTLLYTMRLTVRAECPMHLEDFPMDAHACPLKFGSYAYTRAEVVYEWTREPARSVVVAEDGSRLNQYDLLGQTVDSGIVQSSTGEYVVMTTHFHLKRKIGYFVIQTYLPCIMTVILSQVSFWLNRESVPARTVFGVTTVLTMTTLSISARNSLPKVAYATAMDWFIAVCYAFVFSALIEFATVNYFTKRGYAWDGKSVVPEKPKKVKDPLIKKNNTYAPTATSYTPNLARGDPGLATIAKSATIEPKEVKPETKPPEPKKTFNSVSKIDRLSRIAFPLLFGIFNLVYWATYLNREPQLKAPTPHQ
T1 sequence (P18505 whole entry): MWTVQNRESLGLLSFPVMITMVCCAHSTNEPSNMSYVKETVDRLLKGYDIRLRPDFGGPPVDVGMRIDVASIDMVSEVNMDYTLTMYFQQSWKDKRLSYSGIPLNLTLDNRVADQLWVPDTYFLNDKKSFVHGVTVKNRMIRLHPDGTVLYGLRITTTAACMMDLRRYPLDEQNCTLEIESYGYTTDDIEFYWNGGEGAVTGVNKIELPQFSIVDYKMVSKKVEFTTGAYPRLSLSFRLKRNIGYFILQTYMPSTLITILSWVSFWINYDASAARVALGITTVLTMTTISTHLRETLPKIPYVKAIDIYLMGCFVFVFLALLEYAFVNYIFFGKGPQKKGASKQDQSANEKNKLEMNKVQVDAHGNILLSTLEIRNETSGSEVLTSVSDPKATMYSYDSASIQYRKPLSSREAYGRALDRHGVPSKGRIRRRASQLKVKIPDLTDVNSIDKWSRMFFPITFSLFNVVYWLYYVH

[6] = molecular target: T2, GABA A receptor alpha-1/beta-1/gamma-2 (Homo sapiens, UniProt P14867+P18505+P18507); assay: Displacement of [3H]EBOB from recombinant Homo sapiens (human) GABA alpha1beta1gamma2 receptor; assay type: protein-complex assay
T2 sequence (P14867 whole entry): T1 sequence (P14867 whole entry)
T2 sequence (P18507 whole entry): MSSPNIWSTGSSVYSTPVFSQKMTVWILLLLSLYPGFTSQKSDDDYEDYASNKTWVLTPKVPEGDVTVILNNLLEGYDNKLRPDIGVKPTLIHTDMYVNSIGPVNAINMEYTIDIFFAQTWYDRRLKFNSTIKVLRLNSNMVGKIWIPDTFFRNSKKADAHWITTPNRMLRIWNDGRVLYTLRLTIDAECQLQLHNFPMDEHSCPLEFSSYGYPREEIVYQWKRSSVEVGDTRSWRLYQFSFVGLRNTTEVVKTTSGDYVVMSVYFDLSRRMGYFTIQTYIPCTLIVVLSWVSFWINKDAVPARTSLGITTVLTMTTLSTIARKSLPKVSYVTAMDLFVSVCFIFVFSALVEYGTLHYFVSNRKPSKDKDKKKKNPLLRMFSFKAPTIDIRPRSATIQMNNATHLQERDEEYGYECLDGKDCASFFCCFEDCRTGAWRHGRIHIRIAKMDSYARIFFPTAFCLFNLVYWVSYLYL
T2 sequence (P18505 whole entry): T1 sequence (P18505 whole entry)

[7] = molecular target: T3, GABA-A receptor; alpha-1/beta-3/gamma-2 (Homo sapiens, UniProt P14867+P18507+P28472); assay: Displacement of [3H]EBOB from recombinant Homo sapiens (human) GABA alpha1beta3gamma2 receptor; assay type: protein-complex assay
T3 sequence (P14867 whole entry): T1 sequence (P14867 whole entry)
T3 sequence (P18507 whole entry): T2 sequence (P18507 whole entry)
T3 sequence (P28472 whole entry): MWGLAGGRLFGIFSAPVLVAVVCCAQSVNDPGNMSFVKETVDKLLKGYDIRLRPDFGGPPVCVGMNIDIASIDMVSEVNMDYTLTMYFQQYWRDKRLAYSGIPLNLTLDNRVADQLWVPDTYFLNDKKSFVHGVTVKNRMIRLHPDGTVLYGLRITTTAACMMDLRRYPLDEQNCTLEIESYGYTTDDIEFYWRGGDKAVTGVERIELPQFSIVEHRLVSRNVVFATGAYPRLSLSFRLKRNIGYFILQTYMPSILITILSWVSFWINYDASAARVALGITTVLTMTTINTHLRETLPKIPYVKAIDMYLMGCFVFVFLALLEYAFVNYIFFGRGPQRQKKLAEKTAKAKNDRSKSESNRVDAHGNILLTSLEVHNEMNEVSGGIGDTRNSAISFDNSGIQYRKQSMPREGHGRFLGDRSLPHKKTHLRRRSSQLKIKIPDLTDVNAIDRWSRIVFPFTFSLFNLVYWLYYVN

[8] = molecular target: T4, GABA-A receptor alpha-1/beta-3 (Homo sapiens, UniProt P14867+P28472); assay: Displacement of [3H]EBOB from recombinant Homo sapiens (human) GABA alpha1beta3 receptor
T4 sequence (P14867 whole entry): T1 sequence (P14867 whole entry)
T4 sequence (P28472 whole entry): T3 sequence (P28472 whole entry)

[9] = molecular target: GABA-A receptor; alpha-6/beta-3/gamma-2 (Homo sapiens, UniProt P18507+P28472+Q16445); assay: Displacement of [3H]EBOB from recombinant Homo sapiens (human) GABA alpha6beta3gamma2 receptor; assay type: protein-complex assay
[10] = molecular target: Gamma-aminobutyric acid receptor subunit alpha-6/beta-3 (Homo sapiens, UniProt P28472+Q16445); assay: Displacement of [3H]EBOB from recombinant Homo sapiens (human) GABA alpha6beta3 receptor; assay type: protein-complex assay
[11] = molecular target: T5, Gamma-aminobutyric acid receptor subunit beta-3 (Homo sapiens, UniProt P28472); assay: Displacement of [3H]EBOB from recombinant Homo sapiens (human) GABA beta3 receptor
T5 sequence (P28472 whole entry): T3 sequence (P28472 whole entry)

GABA receptor subunit = molecular target: T6, GABA receptor subunit (Musca domestica, UniProt Q75NA5); assay: Inhibition of Musca domestica (house fly) GABA receptor
T6 sequence (Q75NA5 whole entry): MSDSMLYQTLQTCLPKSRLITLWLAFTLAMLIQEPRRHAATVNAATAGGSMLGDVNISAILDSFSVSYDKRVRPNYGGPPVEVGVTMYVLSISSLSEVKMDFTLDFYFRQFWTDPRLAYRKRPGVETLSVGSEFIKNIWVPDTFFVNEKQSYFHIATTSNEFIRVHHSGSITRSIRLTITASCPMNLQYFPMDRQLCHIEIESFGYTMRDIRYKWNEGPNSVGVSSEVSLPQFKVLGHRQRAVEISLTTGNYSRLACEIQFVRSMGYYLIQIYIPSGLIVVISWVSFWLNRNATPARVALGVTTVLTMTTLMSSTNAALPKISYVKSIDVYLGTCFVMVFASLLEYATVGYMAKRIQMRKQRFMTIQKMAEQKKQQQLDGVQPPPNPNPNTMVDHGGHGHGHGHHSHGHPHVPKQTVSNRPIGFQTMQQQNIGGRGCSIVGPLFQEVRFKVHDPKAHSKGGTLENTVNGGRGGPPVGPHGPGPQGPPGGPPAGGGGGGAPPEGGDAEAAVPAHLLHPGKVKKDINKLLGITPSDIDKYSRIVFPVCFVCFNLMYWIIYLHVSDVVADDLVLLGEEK

Sequence of Gamma-aminobutyric acid receptor subunit rho-1 (P24046 whole entry): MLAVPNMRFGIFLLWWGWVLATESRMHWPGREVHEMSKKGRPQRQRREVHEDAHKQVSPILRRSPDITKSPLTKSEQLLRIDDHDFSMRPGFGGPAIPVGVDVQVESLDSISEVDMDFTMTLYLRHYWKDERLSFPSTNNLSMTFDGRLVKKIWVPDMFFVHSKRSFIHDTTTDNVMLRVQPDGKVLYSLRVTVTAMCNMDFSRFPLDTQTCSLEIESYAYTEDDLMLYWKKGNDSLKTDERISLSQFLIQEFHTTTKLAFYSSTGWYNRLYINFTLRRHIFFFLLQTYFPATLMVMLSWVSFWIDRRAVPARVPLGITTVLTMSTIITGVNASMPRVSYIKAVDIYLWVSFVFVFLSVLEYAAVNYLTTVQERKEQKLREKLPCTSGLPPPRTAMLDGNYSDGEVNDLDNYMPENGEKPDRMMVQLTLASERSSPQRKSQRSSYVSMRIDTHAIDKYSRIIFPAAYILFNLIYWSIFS
Sequence of Gamma-aminobutyric acid receptor subunit alpha-6/beta-3 (Q16445 whole entry, one chain of several): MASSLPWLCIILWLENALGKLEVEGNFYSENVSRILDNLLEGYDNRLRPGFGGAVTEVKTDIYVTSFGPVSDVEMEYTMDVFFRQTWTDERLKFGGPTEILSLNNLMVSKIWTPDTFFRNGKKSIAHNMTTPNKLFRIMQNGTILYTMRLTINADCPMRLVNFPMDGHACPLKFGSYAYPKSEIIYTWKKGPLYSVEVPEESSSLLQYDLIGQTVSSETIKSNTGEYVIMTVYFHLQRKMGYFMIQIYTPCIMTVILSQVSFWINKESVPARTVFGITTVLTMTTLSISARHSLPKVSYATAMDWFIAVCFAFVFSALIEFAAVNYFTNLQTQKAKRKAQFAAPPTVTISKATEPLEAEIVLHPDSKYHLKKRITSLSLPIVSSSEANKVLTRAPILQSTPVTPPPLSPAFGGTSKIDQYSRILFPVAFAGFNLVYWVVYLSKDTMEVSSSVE
Sequence of GABA-A receptor; alpha-6/beta-3/gamma-2 (Q16445 whole entry, one chain of several): as above

SMILES | Ratio IC50 [1] | LD50 (Musca domestica) | LD50 [2] | IC50 [3] | IC50 [4] | IC50 [5] | IC50 [6] | IC50 [7] | IC50 [8] | IC50 [9] | IC50 [10] | IC50 [11] | IC50 (GABA receptor subunit)
C#Cc1ccc(C23OCC(CCC)(CO2)CO3)cc1 | 5 |  |  |  |  |  |  |  |  |  |  |  | 
O=S1OC[C@@H]2[C@H](CO1)[C@@]1(Cl)C(Cl)=C(Cl)[C@]2(Cl)C1(Cl)Cl (stereo partly drawn) [ALPHA-ENDOSULFAN] | 0.73 | 5.5 mg/kg | 10 mg/kg | 7.3 nM | 800 nM | 117 nM | 40 nM | 16 nM | 8.3 nM | 4.6 nM | 4 nM | 0.47 nM | 10 nM
N#Cc1nn(-c2c(Cl)cc(C(F)(F)F)cc2Cl)c(N)c1[S+]([O-])C(F)(F)F (stereo not given) [FIPRONIL] | 1090 | 0.25 mg/kg | 32 mg/kg | 2500 nM | > 10000 nM | 7700 nM | 2800 nM | 33 nM | 28 nM | 17 nM | 3.1 nM | 2.4 nM | 2.3 nM
Cl[C@H]1[C@H](Cl)[C@@H](Cl)[C@@H](Cl)[C@H](Cl)[C@H]1Cl [LINDANE] | 28 | 5.5 mg/kg | 40 mg/kg | 306 nM | 91 nM | 112 nM | 67 nM | 21 nM | 12 nM | 4.9 nM | 1.3 nM | 0.9 nM | 11 nM
